# In ChEMBL document CHEMBL4368904 (J Med Chem, 2019):
# pKi: −log10 of the molar value.
# Tests used:
# [1] = molecular target: T1, Adenosine receptor A1 (Homo sapiens) (UniProt P30542); experiment: Displacement of [3H]N6-R-phenylisopropyladenosine from human A1A adenosine receptor expressed in CHO cell membranes at 10 uM after 60 mins by scintillation proximity assay relative to adenosine 5-N-ethyluronamide
# T1 sequence (whole entry): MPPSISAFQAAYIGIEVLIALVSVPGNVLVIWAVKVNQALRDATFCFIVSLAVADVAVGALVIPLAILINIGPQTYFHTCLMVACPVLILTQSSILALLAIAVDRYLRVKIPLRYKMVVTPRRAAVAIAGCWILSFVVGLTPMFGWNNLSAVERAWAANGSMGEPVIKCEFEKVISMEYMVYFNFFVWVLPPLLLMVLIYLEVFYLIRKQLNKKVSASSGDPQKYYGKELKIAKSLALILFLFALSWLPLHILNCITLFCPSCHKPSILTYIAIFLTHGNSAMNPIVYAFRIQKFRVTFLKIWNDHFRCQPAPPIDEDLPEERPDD
# [2] = molecular target: T2, Adenosine receptor A2a (Homo sapiens, UniProt P29274); experiment: Displacement of [3H]2-[p-(2-carboxyethyl)phenylethylamino]-5-N-ethylcarboxamidoadenosine from human A2A adenosine receptor expressed in HEK293 cell membranes at 10 uM after 60 mins by scintillation proximity assay relative to adenosine 5-N-ethyluronamide
# T2 sequence (P29274 whole entry): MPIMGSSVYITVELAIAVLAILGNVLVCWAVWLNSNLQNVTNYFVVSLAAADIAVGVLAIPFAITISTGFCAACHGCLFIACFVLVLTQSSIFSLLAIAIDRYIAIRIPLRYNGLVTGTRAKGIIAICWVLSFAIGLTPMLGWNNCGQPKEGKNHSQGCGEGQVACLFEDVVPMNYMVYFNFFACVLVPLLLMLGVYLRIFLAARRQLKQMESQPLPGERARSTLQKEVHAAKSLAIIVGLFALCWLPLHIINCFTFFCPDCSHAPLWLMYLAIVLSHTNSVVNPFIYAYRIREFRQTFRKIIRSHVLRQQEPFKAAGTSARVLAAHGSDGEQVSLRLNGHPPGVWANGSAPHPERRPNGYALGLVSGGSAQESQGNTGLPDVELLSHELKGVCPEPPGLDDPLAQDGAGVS
# [3] = molecular target: T3, Adenosine receptor A3 (Homo sapiens) (UniProt P0DMS8); experiment: Displacement of [125I]N6-(4-amino-3-iodobenzyl)adenosine-5-N-methyluronamide from human A3A adenosine receptor expressed in CHO cell membranes at 10 uM after 60 mins by scintillation proximity assay relative to adenosine 5-N-ethyluronamide
# T3 sequence (whole entry): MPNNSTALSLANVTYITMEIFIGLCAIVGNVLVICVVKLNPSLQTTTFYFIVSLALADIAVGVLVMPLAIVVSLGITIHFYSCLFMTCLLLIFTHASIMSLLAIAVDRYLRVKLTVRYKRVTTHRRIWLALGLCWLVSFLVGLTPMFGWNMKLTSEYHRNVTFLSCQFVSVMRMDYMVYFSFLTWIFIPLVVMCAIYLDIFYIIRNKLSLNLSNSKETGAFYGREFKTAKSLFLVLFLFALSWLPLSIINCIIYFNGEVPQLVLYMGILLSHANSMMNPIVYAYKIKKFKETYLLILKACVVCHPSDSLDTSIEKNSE
# [4] = molecular target: T4, Adenosine receptor A3 (Mus musculus) (UniProt Q61618); experiment: Displacement of [125I]N6-(4-amino-3-iodobenzyl)adenosine-5-N-methyluronamide from mouse A3A adenosine receptor expressed in CHO cell membranes at 10 uM after 60 mins by scintillation proximity assay relative to adenosine 5-N-ethyluronamide
# T4 sequence (whole entry): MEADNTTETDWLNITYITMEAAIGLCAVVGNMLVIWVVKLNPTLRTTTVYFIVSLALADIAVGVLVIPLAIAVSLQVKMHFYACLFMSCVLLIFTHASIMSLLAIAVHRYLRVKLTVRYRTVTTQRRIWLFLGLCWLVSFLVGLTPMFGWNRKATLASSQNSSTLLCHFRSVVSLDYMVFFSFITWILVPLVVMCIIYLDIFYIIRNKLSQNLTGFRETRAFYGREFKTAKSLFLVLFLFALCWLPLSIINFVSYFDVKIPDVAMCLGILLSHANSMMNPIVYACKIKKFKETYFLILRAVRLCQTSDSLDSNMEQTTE
# [5] = molecular target: Sigma intracellular receptor 2 (Homo sapiens, UniProt Q5BJF2); experiment: Inhibition of sigma receptor 2 (unknown origin)
# Sequence of Sigma intracellular receptor 2 (Q5BJF2 whole entry): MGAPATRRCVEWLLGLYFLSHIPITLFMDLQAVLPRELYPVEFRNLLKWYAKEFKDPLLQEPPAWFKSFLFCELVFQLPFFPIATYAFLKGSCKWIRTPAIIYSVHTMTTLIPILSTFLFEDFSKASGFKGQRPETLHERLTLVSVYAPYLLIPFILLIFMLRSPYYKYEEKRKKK
# [6] = molecular target: T5, Adenosine receptor A1 (Mus musculus, UniProt Q60612); experiment: Displacement of [3H]N6-R-phenylisopropyladenosine from mouse A1A adenosine receptor expressed in CHO cell membranes after 60 mins by scintillation proximity assay
# T5 sequence (Q60612 whole entry): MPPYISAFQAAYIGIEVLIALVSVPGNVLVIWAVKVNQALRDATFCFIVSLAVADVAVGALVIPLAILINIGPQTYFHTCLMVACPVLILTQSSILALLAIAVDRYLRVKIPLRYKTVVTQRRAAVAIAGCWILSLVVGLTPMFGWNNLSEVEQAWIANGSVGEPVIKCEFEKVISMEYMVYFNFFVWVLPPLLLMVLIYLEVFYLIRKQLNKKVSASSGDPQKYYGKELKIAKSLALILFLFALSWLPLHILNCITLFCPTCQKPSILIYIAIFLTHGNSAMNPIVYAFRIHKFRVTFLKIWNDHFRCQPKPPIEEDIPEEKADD
# [7] = molecular target: T6, Adenosine receptor A3 (Mus musculus, UniProt Q61618); experiment: Displacement of [125I]N6-(4-amino-3-iodobenzyl)adenosine-5-N-methyluronamide from mouse A3A adenosine receptor expressed in CHO cell membranes after 60 mins by scintillation proximity assay
# T6 sequence (Q61618 whole entry): T4 sequence (whole entry)
# [8] = molecular target: 5-hydroxytryptamine receptor 2B (Homo sapiens, UniProt P41595); experiment: Inhibition of 5HT2B (unknown origin)
# Sequence of 5-hydroxytryptamine receptor 2B (P41595 whole entry): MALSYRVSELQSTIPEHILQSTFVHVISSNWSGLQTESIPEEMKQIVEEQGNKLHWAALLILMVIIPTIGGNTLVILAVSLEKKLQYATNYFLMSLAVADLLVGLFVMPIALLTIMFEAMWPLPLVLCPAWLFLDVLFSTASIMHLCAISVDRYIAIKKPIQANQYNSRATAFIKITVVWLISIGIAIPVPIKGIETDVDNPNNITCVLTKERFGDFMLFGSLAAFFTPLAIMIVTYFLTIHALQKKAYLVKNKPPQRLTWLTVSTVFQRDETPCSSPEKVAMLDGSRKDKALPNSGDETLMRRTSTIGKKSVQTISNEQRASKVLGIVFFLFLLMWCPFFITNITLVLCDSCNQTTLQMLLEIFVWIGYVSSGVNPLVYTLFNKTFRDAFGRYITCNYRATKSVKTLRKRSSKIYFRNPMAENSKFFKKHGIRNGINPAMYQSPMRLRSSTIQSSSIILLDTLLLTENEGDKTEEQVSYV
# [9] = molecular target: T7, Adenosine receptor A1 (Homo sapiens, UniProt P30542); experiment: Displacement of [3H]N6-R-phenylisopropyladenosine from human A1A adenosine receptor expressed in CHO cell membranes after 60 mins by scintillation proximity assay
# T7 sequence (P30542 whole entry): T1 sequence (whole entry)
# [10] = molecular target: T2, Adenosine receptor A2a; experiment: Displacement of [3H]2-[p-(2-carboxyethyl)phenylethylamino]-5-N-ethylcarboxamidoadenosine from human A2A adenosine receptor expressed in HEK293 cell membranes after 60 mins by scintillation proximity assay
# [11] = molecular target: T8, Adenosine receptor A3 (Homo sapiens, UniProt P0DMS8); experiment: Displacement of [125I]N6-(4-amino-3-iodobenzyl)adenosine-5-N-methyluronamide from human A3A adenosine receptor expressed in CHO cell membranes after 60 mins by scintillation proximity assay
# T8 sequence (P0DMS8 whole entry): T3 sequence (whole entry)
# [12] = molecular target: Sigma non-opioid intracellular receptor 1 (Homo sapiens, UniProt Q99720); experiment: Inhibition of sigma receptor 1 (unknown origin)
# Sequence of Sigma non-opioid intracellular receptor 1 (Q99720 whole entry): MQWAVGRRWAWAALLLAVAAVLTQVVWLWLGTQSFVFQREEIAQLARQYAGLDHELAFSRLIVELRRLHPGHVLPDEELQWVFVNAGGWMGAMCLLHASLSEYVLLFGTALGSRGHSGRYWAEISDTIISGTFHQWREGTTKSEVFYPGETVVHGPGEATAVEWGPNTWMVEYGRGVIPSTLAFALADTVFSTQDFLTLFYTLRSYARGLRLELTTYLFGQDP
# [13] = molecular target: Adenosine receptor A2a (Mus musculus) (UniProt Q60613); experiment: Displacement of [3H]2-[p-(2-carboxyethyl)phenylethylamino]-5-N-ethylcarboxamidoadenosine from mouse A2A adenosine receptor expressed in HEK293 cell membranes at 10 uM after 60 mins by scintillation proximity assay relative to adenosine 5-N-ethyluronamide
# Sequence of Adenosine receptor A2a (Mus musculus) (Q60613 whole entry): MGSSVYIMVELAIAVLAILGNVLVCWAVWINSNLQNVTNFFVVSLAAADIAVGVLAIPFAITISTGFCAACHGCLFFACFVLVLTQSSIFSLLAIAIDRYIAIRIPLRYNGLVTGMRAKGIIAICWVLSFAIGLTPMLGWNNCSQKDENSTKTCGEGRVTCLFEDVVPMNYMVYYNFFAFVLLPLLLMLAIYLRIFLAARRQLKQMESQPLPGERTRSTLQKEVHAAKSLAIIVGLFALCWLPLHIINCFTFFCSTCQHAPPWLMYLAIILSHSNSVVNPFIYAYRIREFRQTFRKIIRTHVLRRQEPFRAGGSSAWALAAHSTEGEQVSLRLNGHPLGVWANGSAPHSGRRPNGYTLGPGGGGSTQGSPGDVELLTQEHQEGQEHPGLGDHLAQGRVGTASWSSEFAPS
# [14] = molecular target: T9, Adenosine receptor A1 (Mus musculus) (UniProt Q60612); experiment: Agonist activity at mouse A1A adenosine receptor at 10 uM after 60 mins by [35S]GTPgammaS binding assay relative to (2S,3S,4R,5R)-5-(6-amino-9H-purin-9-yl)-N-ethyl-3,4-dihydroxytetrahydrofuran-2-carboxamide; format: functional
# T9 sequence (whole entry): T5 sequence (Q60612 whole entry)
# [15] = molecular target: T4, Adenosine receptor A3 (Mus musculus); experiment: Agonist activity at mouse A3AR adenosine receptor at 10 uM after 60 mins by [35S]GTPgammaS binding assay relative to (2S,3S,4R,5R)-5-(6-amino-9H-purin-9-yl)-N-ethyl-3,4-dihydroxytetrahydrofuran-2-carboxamide; format: functional
# [16] = species: Mus musculus; experiment: Selectivity index, ratio of Ki for mouse A3A adenosine receptor to Ki for mouse A1A adenosine receptor expressed in CHO cell membranes after 60 mins by scintillation proximity assay
# [17] = test system: Mus musculus; experiment: Induction of hypothermia in C57BL/6J mouse assessed as body temperature at 3 mg/kg, ip measured at 60 mins post dose (reference value: 36.3 +/- 0.8 degC); format: functional
# [18] = test system: Mus musculus; experiment: Induction of hypothermia in C57BL/6J mouse assessed as activity counts at 3 mg/kg, ip measured at 60 mins post dose (reference value: 15.5 +/- 5.5); format: functional
# [19] = Fraction unbound in human plasma at 10 uM; format: ADME, cell-free
# [20] = Fraction unbound in mouse plasma at 10 uM; format: ADME, cell-free
# [21] = Fraction unbound in rat plasma at 10 uM; format: ADME, cell-free
# [22] = molecular target: Translocator protein (Homo sapiens, UniProt P30536); experiment: Inhibition of TSPO (unknown origin)
# Sequence of Translocator protein (P30536 whole entry): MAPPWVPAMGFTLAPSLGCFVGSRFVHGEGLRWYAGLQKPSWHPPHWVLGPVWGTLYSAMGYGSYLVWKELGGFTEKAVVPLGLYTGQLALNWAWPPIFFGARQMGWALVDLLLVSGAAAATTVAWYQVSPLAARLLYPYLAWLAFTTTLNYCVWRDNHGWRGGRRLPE
# [23] = test system: Mus musculus; experiment: Induction of hypothermia in C57BL/6J mouse assessed as body temperature at 10 mg/kg, ip measured at 60 mins post dose (reference value: 36.3 +/- 0.8 degC); format: functional
# [24] = test system: Mus musculus; experiment: Induction of hypothermia in C57BL/6J mouse assessed as activity counts at 10 mg/kg, ip measured at 60 mins post dose (reference value: 15.5 +/- 5.5); format: functional
# [25] = molecular target: T10, 5-hydroxytryptamine receptor 2C (Homo sapiens, UniProt P28335); experiment: Inhibition of 5HT2C (unknown origin)
# T10 sequence (P28335 whole entry): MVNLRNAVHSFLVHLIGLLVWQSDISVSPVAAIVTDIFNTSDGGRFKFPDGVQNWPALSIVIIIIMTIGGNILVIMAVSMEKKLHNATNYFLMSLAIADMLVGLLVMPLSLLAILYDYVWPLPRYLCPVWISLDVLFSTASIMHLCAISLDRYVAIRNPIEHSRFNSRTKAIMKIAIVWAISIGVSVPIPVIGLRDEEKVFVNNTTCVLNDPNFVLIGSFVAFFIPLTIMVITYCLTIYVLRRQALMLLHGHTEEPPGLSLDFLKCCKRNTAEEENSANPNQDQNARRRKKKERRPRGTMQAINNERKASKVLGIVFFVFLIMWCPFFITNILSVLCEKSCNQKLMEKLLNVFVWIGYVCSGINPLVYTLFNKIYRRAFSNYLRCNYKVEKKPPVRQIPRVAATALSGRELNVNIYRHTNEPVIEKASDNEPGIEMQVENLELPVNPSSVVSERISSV
smiles,measurement,setting,value
COC(=O)c1ncn([C@H]2[C@H](O)[C@H](O)[C@]3(CO)C[C@H]23)n1,inhibition,[1],6%
same,inhibition,[2],14%
same,inhibition,[3],22%
same,inhibition,[4],15%
same,pKi,[5],5.76
CNC(=O)[C@]12C[C@@H]1[C@@H](n1cnc3c(NC4CCCC4)nc(Cl)nc31)[C@H](O)[C@@H]2O,pKi,[6],9.17
same,pKi,[7],8.46
same,pKi,[8],7.92
OC[C@@]12C[C@@H]1[C@@H](n1cnc3c(N[C@H]4C[C@H]5CC[C@@H]4C5)nc(Cl)cc31)[C@H](O)[C@@H]2O,inhibition,[2],29%
Nc1nc(Cl)nc2c1ncn2[C@H]1[C@H](O)[C@H](O)[C@]2(CCl)C[C@H]12,pKi,[9],8.12
same,pKi,[10],5.76
same,pKi,[11],6.60
same,pKi,[5],5.59
same,pKi,[12],5.71
OC[C@H]1O[C@@H](n2cnc3c(N[C@H]4C[C@H]5CC[C@@H]4C5)ncnc32)[C@H](O)[C@@H]1O,pKi,[6],9.85
same,pKi,[7],6.37
O=C(NCCO)[C@@]12C[C@@H]1[C@@H](n1cnc3c(N[C@H]4C[C@H]5CC[C@@H]4C5)nc(Cl)nc31)[C@H](O)[C@@H]2O,inhibition,[13],23%
OC[C@H]1O[C@@H](n2cnc3c(NC(C4CCC4)C4CCC4)nc(Cl)nc32)[C@H](O)[C@@H]1O,Emax,[14],90%
same,Emax,[15],63%
same,Ratio Ki,[16],1000
same,T,[17],35.5 °C
same,Activity,[18],13.5
same,Fu,[19],5.81%
same,Fu,[20],4.74%
same,Fu,[21],4.64%
O[C@H]1[C@H](n2cnc3c(N[C@H]4C[C@H]5CC[C@@H]4C5)nc(Cl)nc32)[C@H]2C[C@@]2(CCl)[C@H]1O,inhibition,[2],54%
same,inhibition,[13],15%
same,Emax,[14],123%
same,Emax,[15],50%
same,Ratio Ki,[16],270
same,T,[17],36.6 °C
same,Activity,[18],16.8
same,Fu,[19],4.04%
same,Fu,[20],2.95%
same,Fu,[21],2.53%
O[C@H]1[C@H](n2cnc3c(NC(C4CCC4)C4CCC4)nc(Cl)nc32)[C@H]2C[C@@]2(CCl)[C@H]1O,inhibition,[2],17%
same,inhibition,[13],20%
same,pKi,[5],6.46
same,pKi,[22],5.54
same,T,[23],36.5 °C
same,Activity,[24],18.9
O[C@@H]1[C@H](O)[C@@H](CCl)O[C@H]1n1cnc2c(NC3C[C@H]4CC[C@@H]3C4)ncnc21 (mixture of isomers),pKi,[10],5.87
same,pKi,[11],5.89
same,pKi,[7],5.62
same,T,[17],32.2 °C
same,Activity,[18],2.8
CCOC(=O)[C@@]12C[C@@H]1[C@@H](n1cnc3c(NC(C4CC4)C4CC4)nc(Cl)nc31)[C@H](O)[C@@H]2O,pKi,[25],7.27
Nc1ncnc2c1ncn2[C@@H]1O[C@H](C(=O)O)[C@@H](O)[C@H]1O [5'-CARBOXY ADENOSINE],inhibition,[1],24%
same,inhibition,[2],11%
same,inhibition,[3],32%
same,pKi,[5],6.10
OC[C@@]12C[C@@H]1[C@@H](n1cnc3c(NC(C4CCC4)C4CCC4)nc(Cl)nc31)[C@H](O)[C@@H]2O,inhibition,[2],55%
same,inhibition,[13],26%
same,inhibition,[3],25%
same,pKi,[22],5.53
same,T,[23],36.6 °C
same,Activity,[24],18.4
O[C@H]1[C@H](n2cnc3c(NC(C4CCC4)C4CCC4)ncnc32)[C@H]2C[C@@]2(CCl)[C@H]1O,inhibition,[2],38%
same,inhibition,[3],49%
same,pKi,[5],5.93
same,pKi,[22],5.69
same,T,[17],35.9 °C
same,Activity,[18],14.8
O[C@@H]1[C@H](O)[C@@H](CCl)O[C@H]1n1cnc2c(NC(C3CCC3)C3CCC3)ncnc21,pKi,[5],6.18
same,pKi,[22],5.40
same,T,[23],35.8 °C
same,Activity,[24],20.5
O[C@@H]1[C@H](O)[C@@H](CSc2ccccc2F)O[C@H]1n1cnc2c(N[C@@H]3CCC[C@H]3O)ncnc21 [GS-9667],pKi,[9],7.92
same,pKi,[10],< 5.00
CCOC(=O)[C@@]12C[C@@H]1[C@@H](n1cnc3c(NC(C4CCC4)C4CCC4)nc(Cl)nc31)[C@H](O)[C@@H]2O,inhibition,[2],57%
same,pKi,[5],5.69
O[C@H]1[C@H](n2cnc3c(NC(C4CCC4)C4CCC4)nc(Cl)nc32)[C@H]2C[C@@]2(CSc2ccccc2F)[C@H]1O,inhibition,[1],45%
same,inhibition,[2],22%
same,inhibition,[13],20%
same,pKi,[5],6.23
O[C@@H]1[C@H](O)[C@@H]2C[C@@H]2[C@H]1n1cnc2c(NC(C3CCCC3)C3CCCC3)nc(Cl)nc21,pKi,[25],5.53
same,pKi,[5],5.70
same,pKi,[12],5.29
NC(=O)c1ncn([C@@H]2O[C@H](CO)[C@@H](O)[C@H]2O)n1,inhibition,[2],23%
same,inhibition,[3],16%
same,inhibition,[4],0%
